Where a name gives a salt, the structure may show the parent alone.
Legend:
[1] = tested on: mice (p-phenylquinone-induced abdominal writhing); experiment: P-phenylquinone-induced abdominal writhing test in mice; format: in vivo, mouse (male Charles River, Swiss Strain); conditions: Mus musculus, sc, 20 min; s.c., 20 min pretreatment; p-phenylquinone 2 mg/Kg i.p.; 8 min observation; data given for free base form; read-out: ANALGESIA MOUSE WRITHING ED50
Experimental: P-phenylquinone-induced Abdominal Writhinq Test in Mice
The methodology employed is based on that described by Sigmund et al, Proc. Soc. Exptl. Biol. 95, 729/1957, modified by Milne and Twomey, Agents and Actions, 10, 31/1980.
Male Charles River mice (Swiss Strain), 25-36 g body weight, are used. Animals are allowed food and water ad libitum and are randomized into groups of 10 prior to experimentation. Test compounds are dissolved in either distilled water or distilled water plus 0.1 M AMS, and administered by the subcutaneous route in a final volume of 10 ml/Kg. Control animals receive 10 ml/Kg of the appropriate vehicle alone. Following a pretreatment period of 20 min., mice are injected intraperitoneally with p-phenylquinone, 2 mg/Kg at 37° C. in a final volume of 10 mg/Kg. Next, the mice are placed, in a groups of 3, in a compartmented perspex box maintained at room temperature and are observed for a period of 8 min. During this period the number of abdominal writhing responses per animal are recorded where writhing consists of an intermittent contraction of the abdomen associated with hind leg extension.
The degree of antinociceptive protection afforded by the test compound is determined as the mean number of writhing responses observed in the treated group (T) expressed as a percentage of the mean number of writhing responses in the control group (C) according to the following formula:
[1-(T/C)]×100%=% graded protection.

[2] = tested on: mice (tail-flick, heat source reaction time); experiment: Mouse tail-flick test; format: in vivo, mouse (male Charles River); conditions: sc, 0.5 h, s.c., 30 min after dosing, percent number of mice doubling the initial time, data given for free base form, read-out: ANALGESIA MOUSE TAIL-FLICK ED50
Experimental: Mouse Tail-flick test (Modified from the procedure published by D Amour et al., J. Pharm. Exptl. Ther.72, 74/1941).
Male Charles River mice, average weight 26g, are used. Selection is carried out before beginning of experiments: only mice whose reaction time is less than 8 sec are used. They are randomly distributed into groups of 10 and dosed with compounds under test, with positive and negative controls being included.
Compounds under test are administered subcutaneously in isotonic saline in a volume of 20 ml. Kg^-1. 30 min later mice are placed again under heat source (Socrel apparatus) and reaction time is recorded.
The analgesic activity of the test compound is expressed as the percent number of mice doubling the initial time within a group. [formula]

SMILES	ED50 [1]	ED50 [2]
O=C1CCCc2cc(CC(=O)N3CCc4sccc4C3CN3CCCCC3)ccc21 (single isomer, unassigned) [Example 5, (-)4-(piperidin-1-yl)methyl-5-(1-oxo-3,4-dihydro-(2H)-napht-6-yl)acetyl-4,5,6,7-tetrahydrothieno [3,2-c]pyridine L(+) tartrate]	0.009 mg/kg	0.045 mg/kg
O=C1CCCc2cc(CC(=O)N3CCc4ccccc4C3CN3CCCC3)ccc21 (stereo not shown) [Example 1, 1-(pyrrolidin-1-yl)methyl-2-(1-oxo-3,4-dihydro-(2H)-napht-6-Yl)acetyl-1,2,3,4-tetrahydroisoquinoline hydrochloride]	0.036 mg/kg	0.114 mg/kg
O=C1CCCc2cc(CC(=O)N3CCc4ccccc4C3CN3CCCCC3)ccc21 (stereo not shown) [Example 2, 1-(piperidin-1-yl)methyl-2-(1-oxo-3,4-dihydro-(2H)-napht-6-yl)acetyl-1,2,3,4-tetrahydroisoquinoline hydrochloride]	0.038 mg/kg	0.206 mg/kg
O=C1CCCc2cc(CC(=O)N3CCc4sccc4C3CN3CCCC3)ccc21 (stereo not shown) [Example 3, 4-(pyrrolidin-1-yl)methyl-5-(1-oxo-3,4-dihydro-(2H)-napht-6-yl)acetyl-4,5,6,7-tetrahydrothieno [3,2-c] pyridine hydrochloride]	0.023 mg/kg	0.086 mg/kg
O=C1CCCc2cc(CC(=O)N3CCc4sccc4C3CN3CCCCC3)ccc21 (stereo not shown) [Example 4, 4-(piperidin-1-yl)methyl-5-(1-oxo-3,4-dihydro-(2H)-napht-6-Yl)acetyl-4,5,6,7-tetrahydrothieno [3,2-c]pyridine hydrochloride hemihydrate]	0.017 mg/kg	0.174 mg/kg

— patent US5041451A, “Tetrahydroisoquinoline and tetrahydrothieno derivatives” (Dr. Lo. Zambelletti SpA, priority 1988, dated 1991)
